{"source": "patent US12396977B2", "about": "“Composition for treating degenerative brain diseases, containing 2-pentylfuran as active ingredient” (DAEGU GYEONGBUK INSTITUTE OF SCIENCE AND TECHNOLOGY, priority 2019, dated 2025)", "key": {"[1]": {"system": "microglia", "assay": "GFP intensity / morphology of microglia in CX3CR1 GFP mice", "assay_type": "in vivo, mouse", "details": "cerebral cortex of CX3CR1 GFP mice after injection, vs control", "description": "In order to analyze morphological changes in microglia activation, 9-week-old CX3CR1^GFP/− mice were used. Two hours after an IP containing or not containing 2-PF was injected into two mice, brain sections were collected by cryosection. After a 40 μm-thick brain tissue fragment was prepared to be smaller than 1 μm, a GFP signal of microglia was measured using a 40-fold magnification confocal microscope. A GFP-pixel signal of microglia was analyzed using Zeiss ZEN Software (Zeiss)."}, "[2]": {"biological_target": "T1, Olfr110 F104W mutation (Mus musculus, UniProt A2RT31, F104W)", "T1 construct": "Full-length odorant receptor genes from mouse and human genomic DNA were amplified using appropriate primers; Lucy (N); Flag (N); Rho (N); expressed in transfected cells; host or cells: Hana3A cells", "T1 sequence (A2RT31 1-317 F104W)": "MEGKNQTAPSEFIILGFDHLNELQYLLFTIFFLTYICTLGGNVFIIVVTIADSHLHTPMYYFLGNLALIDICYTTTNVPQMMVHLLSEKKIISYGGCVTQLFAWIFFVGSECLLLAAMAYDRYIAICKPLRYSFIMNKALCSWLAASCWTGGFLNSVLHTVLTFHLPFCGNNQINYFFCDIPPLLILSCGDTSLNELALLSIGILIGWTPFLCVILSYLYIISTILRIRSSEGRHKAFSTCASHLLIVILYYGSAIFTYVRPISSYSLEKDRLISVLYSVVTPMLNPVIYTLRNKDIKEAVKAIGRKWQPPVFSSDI", "assay": "Luciferase assay, Olfr110 F104W mutant", "assay_type": "cell-based", "details": "increasing concentration of 2-PF", "excerpt": "Specific mutant vectors of the Olfr110 structure were generated using PfuUltra High-Fidelity DNA polymerase (#600380; Agilent Technologies). All mutant vectors (F102W; F104W; Y252F; Y259F; F102W/F104W; Y252F/Y259F; F102W/Y252F/Y259F; F104W/Y252F/Y259F; F102W/F104W/Y252F/Y259F) were sequenced in forward and reverse directions (Macrogen)."}}}
{"compound": "CCCCCc1ccco1", "note": "[2-PF, 2-pentylfuran]", "values": [{"measurement": "GFP intensity of microglia (morphological change, activation)", "setting": "[1]", "result": "highly increased"}, {"measurement": "luciferase activity of Olfr110 F104W mutant", "setting": "[2]", "result": "completely lost"}]}
